Reference: patent US10975037B2 (priority 2018, dated 2021)
Where two headings read alike, the source gives them in different places.

Legend:
[1] = target: human RORγt ligand binding domain (RORγt LBD) (Homo sapiens (Human), UniProt P51449); assay: RORγt ThermoFluor® assay (thermal shift binding)
In short: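 Thermal shift with 0.065 mg/mL RORγt LBD and 60 μM 1,8-ANS in 100 mM Hepes pH 7.0, 10 mM NaCl, 2.5 mM GSH, 0.002% Tween-20.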

full-length human RORγt = full-length human RORγt (Homo sapiens (Human), UniProt P51449); assay: RORγt (full-length human) reporter assay, conditions A or B, HEK293T cells; type: cell-based; settings: for inhibition at 3 µM / inhibition at 2 µM / inhibition at 0.67 µM / inhibition at 6 µM: HEK-293T; for inhibition at 3 µM: 3 μM compound concentration (footnote *); for inhibition at 3 µM / inhibition at 2 µM / inhibition at 0.67 µM: read-out: RORγt (FL) Reporter Assay A or B, % inhibition; for IC50: RORγt (FL) Reporter Assay A or B, IC50, HEK293T cells; for inhibition at 6 µM: read-out: RORγt (FL) Reporter Assay A or B, % inhibition @ 6 μM, 6 μM compound concentration
Chain of full-length human RORγt (P51449 other isoform, or with tags, fused parts or gaps): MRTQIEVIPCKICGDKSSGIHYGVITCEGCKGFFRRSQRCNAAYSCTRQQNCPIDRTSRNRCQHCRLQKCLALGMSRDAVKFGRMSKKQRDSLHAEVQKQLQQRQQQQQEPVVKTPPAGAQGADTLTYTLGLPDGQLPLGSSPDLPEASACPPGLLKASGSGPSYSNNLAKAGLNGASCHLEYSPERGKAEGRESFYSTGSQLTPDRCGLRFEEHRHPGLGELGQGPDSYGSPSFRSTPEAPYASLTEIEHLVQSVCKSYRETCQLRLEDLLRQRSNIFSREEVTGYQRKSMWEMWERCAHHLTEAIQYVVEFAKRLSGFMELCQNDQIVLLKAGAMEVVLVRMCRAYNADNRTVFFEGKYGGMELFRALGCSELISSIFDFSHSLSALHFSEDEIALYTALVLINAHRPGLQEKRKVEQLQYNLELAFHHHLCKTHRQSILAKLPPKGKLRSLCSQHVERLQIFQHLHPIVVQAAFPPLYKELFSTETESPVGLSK
In short: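 Dual-luciferase read-out was taken after an overnight (16–20 h) compound exposure. Firefly data were scaled between DMSO-only and saturating reference compound, Renilla-normalized, then plotted against concentration for IC50.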

[2] = tested on: IL-17 production by CD4 T cells under conditions which favor Th17 differentiation; assay: Human Th17 assay (IL-17 production by CD4 T cells); type: cell-based
Description: The human Th17 assay tests the effect of RORγt modulatory compounds on IL-17 production by CD4 T cells under conditions which favor Th17 differentiation. Total CD4^+ T cells were isolated from the peripheral blood mononuclear cells (PBMC) of healthy donors using a CD4^+ T cell isolation kit II, following the manufacturer's instructions (Miltenyi Biotec). […] 50 μL of compound at titrated concentrations in DMSO were added into each well at final DMSO concentration at 0.2%. Cells were incubated for 1 hour, then 50 μL of Th17 cell differentiation medium was added to each well. […] Cells were cultured at 37° C. and 5% CO2 for 3 days. Supernatants were collected and the accumulated IL-17 in culture was measured by using MULTI-SPOT® Cytokine Plate following manufacture's instruction (Meso Scale Discovery). The plate was read using Sector Imager 6000, and IL-17 concentration was extrapolated from the standard curve. The IC50s were determined by GraphPad.

[3] = Homo sapiens, CD4+ T; read-out: Human Th17 Assay, IC50
[4] = read-out: ThermoFluor® Assay, Kd
[5] = 0.67 μM compound concentration (footnote ****)

Chain of human RORγt ligand binding domain (RORγt LBD) (P51449 other isoform, or with tags, fused parts or gaps): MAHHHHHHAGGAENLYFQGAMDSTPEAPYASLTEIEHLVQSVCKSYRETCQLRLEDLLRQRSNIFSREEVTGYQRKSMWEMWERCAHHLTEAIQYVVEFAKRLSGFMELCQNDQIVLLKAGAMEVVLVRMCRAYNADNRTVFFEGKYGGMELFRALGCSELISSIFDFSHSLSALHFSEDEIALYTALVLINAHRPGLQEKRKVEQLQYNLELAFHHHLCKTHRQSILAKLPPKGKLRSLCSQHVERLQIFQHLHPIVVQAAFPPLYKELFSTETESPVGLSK

| SMILES | Kd ([1]; ThermoFluor® Assay, Kd) [nM] | inhibition at 3 µM (full-length human RORγt) [%] | IC50 (full-length human RORγt) [nM] | IC50 [2, 3] [nM] | Kd [1, 4] [nM] | inhibition at 2 µM (full-length human RORγt) [%] | IC50 ([2]; Homo sapiens, CD4+ T, read-out: Human Th17 Assay, IC50) [nM] | inhibition at 0.67 µM (full-length human RORγt; [5]) [%] | inhibition at 6 µM (full-length human RORγt) [%] | inhibition at 2 µM (full-length human RORγt; 2 μM compound concentration) [%] | inhibition at 0.67 µM (full-length human RORγt) [%] |
| --- | --- | --- | --- | --- | --- | --- | --- | --- | --- | --- | --- |
| CCn1nc(C(=O)NC[C@]2(O)CC[C@@H](S(C)(=O)=O)C[C@H]2O)c(C)c1-c1ccc(C[C@H](C)C(F)(F)F)cc1OC(F)F (stereo in doubt) [Example 58, 5-(2-(difluoromethoxy)-4-((S*)-3,3,3-trifluoro-2-methylpropyl)phenyl)-N-(((1R*,2R*,4R*)-1,2-dihydroxy-4-(methylsulfonyl)cyclohexyl)methyl)-1-ethyl-4-methyl-1H-pyrazole-3-carboxamide] | 2.6 | 100 | 9.7 | 19 |  |  |  |  |  |  |  |
| CCn1nc(C(=O)NC[C@]2(O)CC[C@@H](S(C)(=O)=O)CC2)c(Cl)c1-c1ccc(CC(C)(C)C(F)(F)F)cc1OC(F)F [Example 132, 4-Chloro-5-(2-(difluoromethoxy)-4-(3,3,3-trifluoro-2,2-dimethylpropyl)phenyl)-1-ethyl-N-(((1s,4s)-1-hydroxy-4-(methylsulfonyl)cyclohexyl)methyl)-1H-pyrazole-3-carboxamide] |  |  | 8.1 |  | 0.45 | 99 | 6 |  |  |  |  |
| CCn1nc(C(=O)NC[C@]2(O)CC[C@@H](S(C)(=O)=O)CC2)c(C)c1-c1ccc(CCCC(F)(F)F)cc1OC(F)F [Example 79, 5-(2-(Difluoromethoxy)-4-(4,4,4-trifluorobutyl)phenyl)-1-ethyl-N-(((1s,4s)-1-hydroxy-4-(methylsulfonyl)cyclohexyl)methyl)-4-methyl-1H-pyrazole-3-carboxamide] |  |  | 8.7 | 58 | 2 |  |  | 99 |  |  |  |
| CCn1nc(C(=O)NC[C@H]2CC[C@H](S(C)(=O)=O)CC2)c(C)c1-c1ccc(CC(C)(C)C(F)(F)F)cc1OC [Example 227, 1-Ethyl-5-(2-methoxy-4-(3,3,3-trifluoro-2,2-dimethylpropyl)phenyl)-4-methyl-N-(((1r,4r)-4-(methylsulfonyl)cyclohexyl)methyl)-1H-pyrazole-3-carboxamide] |  |  | 9 | 14 | 1.1 |  |  | 92 |  |  |  |
| CCn1nc(C(=O)NC[C@H]2CC[C@H](S(C)(=O)=O)CC2)c(F)c1-c1ccc(N[C@H](C)C(F)(F)F)cc1OC [Example 203, 1-Ethyl-4-fluoro-5-(2-methoxy-4-(((R)-1,1,1-trifluoropropan-2-yl)amino)phenyl)-N-(((1r,4R)-4-(methylsulfonyl)cyclohexyl)methyl)-1H-pyrazole-3-carboxamide] |  |  | 130 | 39 | 17 |  |  |  | 105 |  |  |
| Cc1c(C(=O)NC[C@]2(O)CC[C@@H](S(C)(=O)=O)CC2)nn(C)c1-c1ccc(CCCC(F)(F)F)cc1OC(F)F [Example 161, 5-(2-(Difluoromethoxy)-4-(4,4,4-trifluorobutyl)phenyl)-N-(((1s,4s)-1-hydroxy-4-(methylsulfonyl)cyclohexyl)methyl)-1,4-dimethyl-1H-pyrazole-3-carboxamide] |  | 81 | 7.8 | 200 | 32 |  |  |  |  |  |  |
| COc1cc(N[C@H](C)C(F)(F)F)ccc1-c1c(Cl)c(C(=O)NC[C@H]2CC[C@H](S(C)(=O)=O)CC2)nn1CCO [Example 201, 4-Chloro-1-(2-hydroxyethyl)-5-(2-methoxy-4-(((R)-1,1,1-trifluoropropan-2-yl)amino)phenyl)-N-(((r,4R)-4-(methylsulfonyl)cyclohexyl)methyl)-1H-pyrazole-3-carboxamide] |  |  | 1600 | 2800 | 200 |  |  |  | 82 |  |  |
| CCn1nc(C(=O)NC[C@H]2CC[C@H](S(C)(=O)=O)CC2)c(Cl)c1-c1ccc(N[C@H](C)C(F)(F)F)cc1OC [Example 23, 4-chloro-1-ethyl-5-(2-methoxy-4-(((R)-1,1,1-trifluoropropan-2-yl)amino)phenyl)-N-(((1 r,4R)-4-(methylsulfonyl)cyclohexyl)methyl)-1H-pyrazole-3-carboxamide] |  |  | 28 | 38 | 4.6 |  |  |  |  | 104 |  |
| CCn1nc(C(=O)NC[C@H]2CC[C@H](S(C)(=O)=O)CC2)c(Cl)c1-c1ccc(C[C@H](C)C(F)(F)F)cc1OC (single isomer, unassigned) [Example 3, 4-Chloro-1-ethyl-5-(2-methoxy-4-((S*)-3,3,3-trifluoro-2-methylpropyl)phenyl)-N-(((1r,4R)-4-(methylsulfonyl)cyclohexyl)methyl)-1H-pyrazole-3-carboxamide] | 0.63 |  | 9 | 15 |  |  |  | 98 |  |  |  |
| CCn1nc(C(=O)NC[C@]2(CO)CC[C@@H](S(C)(=O)=O)CC2)c(Cl)c1-c1ccc(CC(C)C(F)(F)F)cc1OC (some centres unmarked) [Example 92, 4-Chloro-1-ethyl-N-(((1s*,4s*)-1-(hydroxymethyl)-4-(methylsulfonyl)cyclohexyl)methyl)-5-(2-methoxy-4-(3,3,3-trifluoro-2-methylpropyl)phenyl)-1H-pyrazole-3-carboxamide] |  |  | 66 | 270 | 39 |  |  |  |  |  | 87 |
| CCn1nc(C(=O)NC[C@]2(O)CC[C@@H](S(N)(=O)=O)CC2)c(Cl)c1-c1ccc(CC(C)(C)C(F)(F)F)cc1OC(F)F [Example 62, 4-Chloro-5-(2-(difluoromethoxy)-4-(3,3,3-trifluoro-2,2-dimethylpropyl)phenyl)-1-ethyl-N-(((1s,4s)-1-hydroxy-4-sulfamoylcyclohexyl)methyl)-1H-pyrazole-3-carboxamide] |  | 120 | 12 | 36 | 0.78 |  |  |  |  |  |  |
| CCn1nc(C(=O)NC[C@]2(O)CC[C@@H](S(C)(=O)=O)CC2)c(Cl)c1-c1ccc(CC(C(F)(F)F)C(F)(F)F)cc1OC [Example 85, 4-Chloro-1-ethyl-N-(((1s,4s)-1-hydroxy-4-(methylsulfonyl)cyclohexyl)methyl)-5-(2-methoxy-4-(3,3,3-trifluoro-2-(trifluoromethyl)propyl)phenyl)-1H-pyrazole-3-carboxamide] |  |  | 2.6 | 9.3 | 0.43 |  |  | 103 |  |  |  |
| COCCn1nc(C(=O)NC[C@H]2CC[C@H](S(C)(=O)=O)CC2)c(Cl)c1-c1ccc(N[C@H](C)C(F)(F)F)cc1OC [Example 187, 4-Chloro-5-(2-methoxy-4-(((R)-1,1,1-trifluoropropan-2-yl)amino)phenyl)-1-(2-methoxyethyl)-N-(((1r,4R)-4-(methylsulfonyl)cyclohexyl)methyl)-1H-pyrazole-3-carboxamide] | 18 |  | 110 | 54 |  |  |  |  | 104 |  |  |
| CCn1nc(C(=O)NC[C@]2(O)CC[C@@H](S(C)(=O)=O)C[C@H]2O)c(Cl)c1-c1ccc(CC(C)(C)C(F)(F)F)cc1OC(F)F (single isomer, unassigned) [Example 46, 4-Chloro-5-(2-(difluoromethoxy)-4-(3,3,3-trifluoro-2,2-dimethylpropyl)phenyl)-N-(((1R*,2R*,4R*)-1,2-dihydroxy-4-(methylsulfonyl)cyclohexyl)methyl)-1-ethyl-1H-pyrazole-3-carboxamide] | 0.42 |  | 5 | 13 |  |  |  | 92 |  |  |  |
